According to the supplement of paper PMC10307832:

Columns and labels:
Assay in all cases: relative viability (nuclei count vs DMSO), 5 days (fraction); higher = more cells survive
Idelalisib + Linsitinib = compound: CC[C@H](Nc1ncnc2[nH]cnc12)c1nc2cccc(F)c2c(=O)n1-c1ccccc1 [Idelalisib] + C[C@]1(O)C[C@@H](c2nc(-c3ccc4ccc(-c5ccccc5)nc4c3)c3c(N)nccn32)C1 [Linsitinib] (partner 1 µM)
Summary of the method: (§1)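 After 5 days of treatment, lung cancer cells in 1536-well plates were fixed and stained in a single step (final 0.05% Triton X-100, 1% formaldehyde, 1 ug/ml Hoechst) and their nuclei counted on 4× images. Treatment had been applied by pin tool the day after seeding as one drug alone or as a fixed anchor-drug dose with five library-drug doses (not always all listed) in √10 steps. Relative viability is the nuclei count of treated wells divided by that of vehicle wells, and values are medians of duplicate plates.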

Idelalisib + Phenformin = compound: CC[C@H](Nc1ncnc2[nH]cnc12)c1nc2cccc(F)c2c(=O)n1-c1ccccc1 [Idelalisib] + N=C(N)NC(=N)NCCc1ccccc1 [Phenformin] (partner 250 µM)
Summary of the method: as §1

Pemetrexed + Palbociclib = compound: Nc1nc2[nH]cc(CCc3ccc(C(=O)N[C@@H](CCC(=O)O)C(=O)O)cc3)c2c(=O)[nH]1 [Pemetrexed] + CC(=O)c1c(C)c2cnc(Nc3ccc(N4CCNCC4)cn3)nc2n(C2CCCC2)c1=O [Palbociclib] (partner 0.5 µM)
Summary of the method: as §1

Pemetrexed + OSI-027 = compound: Nc1nc2[nH]cc(CCc3ccc(C(=O)N[C@@H](CCC(=O)O)C(=O)O)cc3)c2c(=O)[nH]1 [Pemetrexed] + COc1cccc2cc(-c3nc([C@H]4CC[C@H](C(=O)O)CC4)n4ncnc(N)c34)[nH]c12 [OSI-027] (partner 0.5 µM)
Summary of the method: as §1

Cell Line	relative viability (Idelalisib + Linsitinib; first compound 0.04 µM)	relative viability (Idelalisib + Linsitinib; first compound 0.1265 µM)	relative viability (Idelalisib + Linsitinib; first compound 0.4 µM)	relative viability (Idelalisib + Linsitinib; first compound 1.265 µM)	relative viability (Idelalisib + Linsitinib; first compound 4 µM)	relative viability (Idelalisib + Phenformin; first compound 0.04 µM)	relative viability (Idelalisib + Phenformin; first compound 0.1265 µM)	relative viability (Idelalisib + Phenformin; first compound 0.4 µM)	relative viability (Idelalisib + Phenformin; first compound 1.265 µM)	relative viability (Idelalisib + Phenformin; first compound 4 µM)	relative viability (Pemetrexed + Palbociclib; first compound 0.002 µM)	relative viability (Pemetrexed + Palbociclib; first compound 0.006325 µM)	relative viability (Pemetrexed + Palbociclib; first compound 0.02 µM)	relative viability (Pemetrexed + Palbociclib; first compound 0.06325 µM)	relative viability (Pemetrexed + Palbociclib; first compound 0.2 µM)	relative viability (Pemetrexed + OSI-027; first compound 0.002 µM)	relative viability (Pemetrexed + OSI-027; first compound 0.006325 µM)	relative viability (Pemetrexed + OSI-027; first compound 0.02 µM)	relative viability (Pemetrexed + OSI-027; first compound 0.06325 µM)	relative viability (Pemetrexed + OSI-027; first compound 0.2 µM)
EKVX	0.832	0.97	0.849	0.724	0.758	0.244	0.258	0.213	0.225	0.234	0.386	0.365	0.407	0.399	0.284	0.673	0.678	0.693	0.706	0.611
EPLC-272H	1.49	0.996	0.977	1.13	0.976	0.302	0.291	0.308	0.257	0.265	0.355	0.331	0.356	0.332	0.303	0.268	0.257	0.343	0.302	0.265
LK-2	0.531	0.418	0.5	0.518	0.419	0.477	0.407		0.536	0.384	0.751	0.758	0.721	0.464	0.366	0.233	0.205	0.228	0.153	0.2
CAL-12T	0.823	0.906	0.733	0.822	0.584	0.622	0.614	0.507	0.65	0.67	0.338	0.435	0.575	0.438	0.341	0.617	0.631	0.819	0.648	0.671
NCI-H322M	0.971	0.924	0.801	0.642	0.692	0.901	0.846	0.66	0.741	0.735	0.465	0.458	0.494	0.509	0.462	0.606	0.484	0.536	0.583	0.476
SW 1573	0.781	0.792	0.728	0.625	0.558	0.383	0.37	0.336	0.36	0.336	0.352	0.423	0.435	0.413	0.235	0.602	0.465	0.718	0.646	0.61
NCI-H2405	1.08	0.851	0.733	0.736	0.69	0.451	0.37	0.322	0.355	0.35	0.524	0.531	0.535	0.514	0.48	0.628	0.597	0.67	0.641	0.663
LCLC-103H	1.11	0.948	0.886	1.05	0.704	0.367	0.312	0.275	0.33	0.314	0.465	0.454	0.496	0.443	0.479	0.409	0.474	0.549	0.463	0.553
HCC-44	0.662	0.65	0.596	0.476	0.584	0.201	0.229	0.177	0.235	0.153	0.909	0.95	0.934	0.972	0.99	0.489	0.623	0.631	0.484	0.444
RERF-LC-KJ	0.973	0.863	0.869	0.789	0.908	0.442	0.438	0.419	0.44	0.373	0.877	1.08	1.14	0.976	0.773	0.528	0.508	0.666	0.546	0.451
NCI-H1975	0.98	1.03	0.882	0.937	0.772	0.426	0.418	0.369	0.408	0.357	0.306	0.562	0.606	0.375	0.237	0.528	0.681	0.873	0.557	0.394
LCLC-97TM1	0.209	0.184		0.175	0.156	0.43	0.434	0.267	0.592	0.453	0.225	0.228	0.206	0.21	0.259	0.552	0.361	0.61	0.477	0.235
NCI-H520	0.98	0.935	0.856	0.894	0.648	0.513	0.585	0.466	0.451	0.397	0.225	0.238	0.271	0.243	0.248	0.225	0.246	0.321	0.267	0.265
A-427	1.08	0.896	1.08	1.13	1.05	0.36	0.318	0.287	0.372	0.328	0.505	0.529	0.572	0.509	0.483	0.422	0.431	0.481	0.466	0.402
ABC-1	0.765	0.698	0.827	0.651	0.689	0.243	0.254	0.231	0.267	0.217	0.905	0.527	0.684	0.468	0.542	0.515	0.359	0.736	0.529	0.512
NCI-H460	0.834	0.801	0.624	0.681	0.56	0.643	0.516	0.438	0.503	0.515		0.142	0.206	0.0722	0.0459	0.57	0.51	0.824	0.374	0.0473
